Assay results: patent publication US8455023B2, “Composition for inhibiting melanogenesis and use thereof” (Kaohsiung Medical University, priority 2010, dated 2013)
Where two headings read alike, the source gives them in different places.

Assays:
Type in all cases: cell-based
[1] = test system: Neonatal foreskin primary human epidermal melanocytes (HEMn-MP); assay: Melanin quantitation analysis in HEMn-MP cells; conditions: for Cell melanin content (in words): FIG. 2C; for Percentage of cellular melanin concentration (%): control = 100%
Experimental: Lin's method was used to quantify melanin (Lin et al., Constituents from the Formosan apple reduce tyrosinase activity in human epidermal melanocytes 2007 Phytochemistry Volume 68, Issue 8, Pages 1189-1199). Cells were resuspend in 1N NaOH and dimethyl sulfoxide (DSMO), heated at 80° C. for 1 hour, centrifuged for 10 min at 10,000 rpm, and measured OD 405 nm value of supernatant. As shown in Table 3 and FIG. 2C, the control group value was set as 100%. All results obtained from 3 independent experiments.

[2] = test system: Neonatal foreskin primary human epidermal melanocytes (HEMn-MP); assay: Toxicity assay (MTS) in human melanocytes
Experimental: Neonatal foreskin primary human epidermal melanocytes (HEMn-MP) was purchased from Cascade Biologics™, and cultured in 254 medium (Cascade Biologics™) with human melanocyte growth supplement (HMGS, cat. #S-002-5). Cells were maintained at 37° C. humid environment (5% CO2). Neonatal foreskin primary human epidermal melanocytes (HEMn-MP) were cultured in 24-Well plates at seeding density of 10^5 cells/well.
MTS assay (Mosmann T, Rapid colorimetric assay for cellular growth and survival: application to proliferation and cytotoxicity assays J Immunol Methods 1983 16; 65(1-2):55-63) was used for cell toxicity assay. […] The stimulation of MSH to melanin synthesis was used as a reference for comparison of compound (I) and (II). Control group value was set as 100% which obtained from 3 independent experiments.

[3] = molecular target: T1, tyrosinase (Homo sapiens, UniProt P14679); assay: Tyrosinase activity assay (dopachrome biosynthesis rate, lysate of treated HEMn-MP cells); conditions: for Tyrosinase activity percentage (%): 3 days, control = 100%; for Tyrosinase activity (in words): FIG. 2B
T1 construct: endogenous in cells; host or cells: HEMn-MP human epidermal melanocytes (lysate in 1% Triton X-100/PBS)
T1 sequence (P14679 19-529): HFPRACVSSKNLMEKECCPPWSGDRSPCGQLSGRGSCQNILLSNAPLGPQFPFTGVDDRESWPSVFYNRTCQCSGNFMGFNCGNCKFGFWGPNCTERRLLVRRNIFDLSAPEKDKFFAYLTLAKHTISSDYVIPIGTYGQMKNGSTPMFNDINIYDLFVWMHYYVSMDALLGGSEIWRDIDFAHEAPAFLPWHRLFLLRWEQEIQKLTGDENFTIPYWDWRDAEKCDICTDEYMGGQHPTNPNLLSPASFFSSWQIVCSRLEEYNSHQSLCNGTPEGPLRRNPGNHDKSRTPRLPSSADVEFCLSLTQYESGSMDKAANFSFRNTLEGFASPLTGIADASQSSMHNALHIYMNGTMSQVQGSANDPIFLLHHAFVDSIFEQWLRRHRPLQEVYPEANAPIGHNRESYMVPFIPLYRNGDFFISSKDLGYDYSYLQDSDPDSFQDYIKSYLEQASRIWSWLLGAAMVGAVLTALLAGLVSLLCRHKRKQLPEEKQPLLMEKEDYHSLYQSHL
Experimental: Cultured cells were rinsed with […] resuspend in 1% Triton X-100/PBS. Cell lysate was harvested. L-Dopa and L-tyrosine 10 μl (10 mM in 0.1M PBS, pH 6.8) were added and incubated at 37° C. for 3 hours. After reaction, the OD 490 nm value was measured.

[4] = test system: Neonatal foreskin primary human epidermal melanocytes (HEMn-MP); assay: Microscopic appearance of HEMn-MP cells (FIG. 3); conditions: high concentrations; 200× bright field; FIGS. 3E and 3J
Source text: Microscopic images were taken under 200× magnification bright field view. The arrow head indicates bipolar appearance of neonatal foreskin primary human epidermal melanocyte (HEMn-MP).
Under 200× bright field microscope, the control group and low concentration compound (I) and (II) treated cells (FIGS. 3A, 3H, 3I, 3M and 3N) were lined up tightly showing bipolar appearance.

[5] = reference, concentration 100 μM

| Compound | Cell melanin content (in words) [1] | Percentage of cellular melanin concentration (%) [1, 5] [%] | Cell activity (in words) [2] | Tyrosinase activity percentage (%) ([3]; 0.01 μM) | Tyrosinase activity percentage (%) ([3]; 0.1 μM (MSH concentration)) | Tyrosinase activity percentage (%) ([3]; 1 μM) | Tyrosinase activity percentage (%) ([3]; 5 μM) | Tyrosinase activity percentage (%) ([3]; 10 μM) | Tyrosinase activity (in words) [3] | Percentage of cellular melanin concentration (%) ([1]; 0.01 μM) | Percentage of cellular melanin concentration (%) ([1]; 0.1 μM (MSH concentration)) | Percentage of cellular melanin concentration (%) ([1]; 1 μM) | Percentage of cellular melanin concentration (%) ([1]; 5 μM) | Percentage of cellular melanin concentration (%) ([1]; 10 μM) | Cell activity percentage (%) ([2]; human, 0.01 μM) | Cell activity percentage (%) ([2]; human, 0.1 μM) | Cell activity percentage (%) ([2]; human, 1 μM) | Cell activity percentage (%) ([2]; human, 5 μM) | Cell activity percentage (%) ([2]; human, 10 μM) | Cell appearance under microscope [4] | further results |
| --- | --- | --- | --- | --- | --- | --- | --- | --- | --- | --- | --- | --- | --- | --- | --- | --- | --- | --- | --- | --- | --- |
| O=c1cc(CO)occ1O [Kojic acid, reference compound] | reduced melanin content | 66.34 | less effects on cell activity | – | – | – | – | – | – | – | – | – | – | – | – | – | – | – | – | – | Cell activity percentage (%) ([2]; human, 100 μM): 72.87% |
| C=C1OC(=O)/C(=C\CCCCCCCCCCCCC)[C@H]1O [Linderanolide B, linderanolide B] | cell melanin content decreased | – | reduced along with higher concentrations | 84.15 | 72.96 | 45.91 | 18.04 | 14.59 | reduced along with elevated concentrations | 89.63 | 78.63 | 67.56 | 28.93 | 24.39 | 94.19 | 87.52 | 83 | 62.41 | 54.26 | partial toxicity to cells | – |
| CCCCCCCCCCCCC/C=C1\C(=O)O[C@@](C)(OC)[C@@H]1O [Subamolide A, subamolide A] | cell melanin content decreased | – | reduced along with higher concentrations | 78.62 | 74.21 | 44.03 | 7.369 | 7.275 | reduced along with elevated concentrations | 84.11 | 76.85 | 66.1 | 25.12 | 20.2439 | 93.41 | 85.66 | 73.91 | 54.69 | 44.91 | partial toxicity to cells | – |
| NC(=S)Nc1ccccc1 [N-phenylthiourea, reference compound] | reduced melanin content | 77.56 | – | – | – | – | – | – | less effective to tyrosinase activity | – | – | – | – | – | – | – | – | – | – | – | Tyrosinase activity percentage (%) [3, 5]: 71.07%; Cell activity percentage (%) ([2]; 100 μM, MTS, control = 100%): 79.07%; Cell activity (in words) ([2]; FIG. 2A): less effects on cell activity |
